Reference: US11180423B2, “Compositions and methods for micronutrient introduction” (CHS INC., priority 2014, dated 2021)

How the values were obtained:
[1] = tested on: Zea mays (variety DKC 43-48); experiment: 2012 Corn Trial—St. Cloud, Minn.; format: in vivo; conditions: in furrow, compared to untreated controls
Description: A corn trial utilizing a composition of the instant disclosure was performed in St. Cloud, Minn., in 2012. In this example, the composition comprised ortho-ortho EDDHA as the exemplary ligand.
In this example, Zea mays (variety DKC 43-48) seeds were planted on May 15, 2012. Soil moisture was normal and the seed bed was compacted. The tillage type was conventional till. The treated crop area for the instant example was 300 square feet (ft^2). The study design was randomized complete block (RCB) with four replications.
Corn plants were harvested on Oct. 10, 2012. Thereafter, the yield of corn plants administered the composition comprising ortho-ortho EDDHA was compared to the yield of control corn plants that were untreated.

[2] = tested on: corn variety Pioneer 8640 Roundup Ready; experiment: 2013 Corn Trial—Casselton, N. Dak.; format: in vivo; conditions: compared to untreated controls
[3] = tested on: corn variety Dekalb 45-51; experiment: 2013 Corn Trial—Brookings, S. Dak.; format: in vivo; conditions: compared to untreated controls
Description: A corn trial utilizing a composition of the instant disclosure was performed near Brookings, S. Dak., in 2013. In this example, the composition comprised ortho-ortho EDDHA as the exemplary ligand.
In this example, corn variety Dekalb 45-51 was planted on May 14, 2013. Corn was planted to a population of 32,000 plants per acre, and a 30-inch row spacing was used. The soil type was Brandt silty clay loam.
Corn plants were harvested on Oct. 24, 2013. Thereafter, the yield of corn plants administered the composition comprising ortho-ortho EDDHA was compared to the yield of control corn plants that were untreated.

[4] = tested on: glycine max (variety PB0954RR) soybean; experiment: 2013 Soybean Trial—St. Cloud, Minn.; format: in vivo; conditions: compared to untreated controls
Description: A soybean trial utilizing a composition of the instant disclosure was performed in St. Cloud, Minn., in 2013. In this example, the composition comprised ortho-ortho EDDHA as the exemplary ligand.
In this example, glycine max (variety PB0954RR) soybean seeds were planted on Jun. 17, 2013. The tillage type was conventional till. The treated crop area for the instant example was 300 square feet (ft^2). The study design was randomized complete block (RCB) with four replications.
Soybean plants were harvested on Oct. 11, 2013. Thereafter, yield of soybean plants administered the composition comprising ortho-ortho EDDHA was compared to the yield of control soybean plants that were untreated.

corn seeds = experiment: 2013 Corn Seed Trial—Brookings, S. Dak.; format: in vivo; conditions: corn seed treatment; compared to untreated controls
Description: A corn seed trial utilizing a composition of the instant disclosure was performed in Brookings, S. Dak., in 2013. In this example, the composition comprised ortho-ortho EDDHA as the exemplary ligand (i.e., “WC101”). The study design was randomized complete block (RCB) with four replications. […] [table] Plot unit sizes were approximately 10 feet by 40 feet according to the disclosed layout of FIG. 9.

corn = experiment: 2014 Corn Trial—Scandia, Kans.; format: in vivo; conditions: starter fertilizer treatment groups; for yield response (effect in words): FIG. 1, Table 8, improvement especially for groups without micronutrients (10-34-0, 9-18-9)
Description: A corn trial utilizing a composition of the instant disclosure was performed near Scandia, Kans., in 2014. In this example, the composition comprised ortho-ortho EDDHA as the exemplary ligand (i.e., “WC101”).
In this example, corn was planted on May 2, 2014. Treatments were applied as starter applications at planting with an application volume of 6 gpa. Weed control was completed as needed to keep weed free with maintenance sprays.
Data collected included yield (bu/acre), test weight, moisture, preliminary soil analysis, and plant tissue and grain analysis. Grain yield was measured harvesting the two center rows with a plot combine. Total phosphorus (P) content in plant tissue was measured for the ear leaf and grain P concentration was measured after harvest with grain analysis for total P content.
Fertilizer treatment mixes were completed before application. […] Although treatment application was complicated in some instances, the rates and placement for the instant example were believed to be within acceptable parameters. Grain yield was measured harvesting the two center rows with a plot combine. Total phosphorus (P) content in plant tissue was measured for the ear leaf and grain P concentration was measured after harvest with grain analysis for total P content.

[5] = Visual observations of fertilizer treatment mixes; format: physicochemical; conditions: various fertilizers, for instance 9-18-9

`O=C(O)C(NCCNC(C(=O)O)c1ccccc1O)c1ccccc1O` (stereo not shown) [ortho-ortho EDDHA] showed a yield increase [1] of 8.5 bushels per acre, a yield increase [2] of 4.6 bushels per acre and a yield increase [3] of 8.2 bushels per acre. The yield increase [4] was 5.1 bushels per acre, the emergence increase (corn seeds) was 3.5% and the yield increase (corn seeds) was 1.4 bushels per acre. For the same compound, the “yield response (effect in words)” value (corn; listed as WC101) was “improvement”, the “yield response (effect in words)” value (corn; listed as ligand) was “statistically significant effect” and the “plant tissue phosphorus (P) response, ear leaf (effect in words)” value (corn; FIG. 2, Table 8, listed as WC101) was “improvement”. The “plant tissue phosphorus (P) response, ear leaf (effect in words)” value (corn; FIG. 2, Table 8, listed as ligand) was “statistically significant effect”, the “grain P removal response (effect in words)” value (corn; FIG. 3, Table 8, listed as WC101) was “improvement” and the “grain P removal response (effect in words)” value (corn; FIG. 3, Table 8, listed as ligand) was “statistically significant effect”. For the same compound, the “compatibility with fertilizers in treatment mixes” value [5] was “possible compatibility issues”.
